Data published in the NIST ThermoML archive (doi:10.1016/j.jct.2019.03.039).

Experiment: mn = molality of the nth substance listed, in mol/kg
Settings: 101.3 kPa, Liquid; for viscosity: Capillary tube (Ostwald / Ubbelohde) method; for speed of sound: Frequency=4 MHz, Linear variable-path acoustic interferometer; for mass density: Vibrating tube method

N=C(N)NCCC[C@H](N)C(=O)O [L-arginine] + O
Settings	mass density [kg/m3]	speed of sound [m/s]	viscosity [mPa·s]
293.15 K, m1 = 0.05014	1000.72	1487.6	1.032
293.15 K, m1 = 0.1001	1003.17	1492.7	1.054
293.15 K, m1 = 0.15	1005.58	1497.9	1.08
293.15 K, m1 = 0.2	1007.92	1503.2	1.107
293.15 K, m1 = 0.25	1010.21	1508.6	1.13
293.15 K, m1 = 0.3001	1012.47	1514.1	1.155
298.15 K, m1 = 0.05014	999.556	1502.4	0.9151
298.15 K, m1 = 0.1001	1001.99	1507.5	0.9358
298.15 K, m1 = 0.15	1004.36	1512.7	0.9586
298.15 K, m1 = 0.2	1006.68	1518	0.9766
298.15 K, m1 = 0.25	1008.94	1523.4	1
298.15 K, m1 = 0.3001	1011.17	1528.9	1.021
303.15 K, m1 = 0.05014	998.142	1514.5	0.8179
303.15 K, m1 = 0.1001	1000.55	1519.6	0.8355
303.15 K, m1 = 0.15	1002.9	1524.8	0.8555
303.15 K, m1 = 0.2	1005.19	1530.1	0.8718
303.15 K, m1 = 0.25	1007.45	1535.5	0.8909
303.15 K, m1 = 0.3001	1009.67	1541	0.9084
308.15 K, m1 = 0.05014	996.503	1524.3	0.7362
308.15 K, m1 = 0.1001	998.883	1529.4	0.7512
308.15 K, m1 = 0.15	1001.21	1534.6	0.7694
308.15 K, m1 = 0.2	1003.48	1539.9	0.7828
308.15 K, m1 = 0.25	1005.7	1545.3	0.7987
308.15 K, m1 = 0.3001	1007.89	1550.8	0.8144
313.15 K, m1 = 0.05014	994.671	1533.7	0.6673
313.15 K, m1 = 0.1001	997.036	1538.8	0.6808
313.15 K, m1 = 0.15	999.344	1544	0.6951
313.15 K, m1 = 0.2	1001.6	1549.3	0.7067
313.15 K, m1 = 0.25	1003.8	1554.7	0.7224
313.15 K, m1 = 0.3001	1005.97	1560.3	0.7345

N[C@@H](CO)C(=O)O [L-serine] + O
Settings	mass density [kg/m3]	speed of sound [m/s]	viscosity [mPa·s]
293.15 K, m1 = 0.05002	1000.49	1485.7	1.011
293.15 K, m1 = 0.1001	1002.74	1488.9	1.022
293.15 K, m1 = 0.15	1004.96	1492.2	1.034
293.15 K, m1 = 0.2003	1007.18	1495.6	1.046
293.15 K, m1 = 0.2502	1009.36	1499.1	1.058
293.15 K, m1 = 0.2999	1011.52	1502.7	1.069
298.15 K, m1 = 0.05002	999.314	1500.4	0.8972
298.15 K, m1 = 0.1001	1001.55	1503.5	0.907
298.15 K, m1 = 0.15	1003.74	1506.7	0.9165
298.15 K, m1 = 0.2003	1005.94	1510	0.9277
298.15 K, m1 = 0.2502	1008.1	1513.4	0.9379
298.15 K, m1 = 0.2999	1010.23	1516.9	0.9477
303.15 K, m1 = 0.05002	997.896	1512.4	0.8025
303.15 K, m1 = 0.1001	1000.1	1515.4	0.8115
303.15 K, m1 = 0.15	1002.27	1518.5	0.8204
303.15 K, m1 = 0.2003	1004.44	1521.7	0.8295
303.15 K, m1 = 0.2502	1006.56	1525	0.8377
303.15 K, m1 = 0.2999	1008.66	1528.4	0.8466
308.15 K, m1 = 0.05002	996.254	1522.1	0.723
308.15 K, m1 = 0.1001	998.433	1525	0.7313
308.15 K, m1 = 0.15	1000.58	1528	0.7386
308.15 K, m1 = 0.2003	1002.72	1531.1	0.7463
308.15 K, m1 = 0.2502	1004.83	1534.3	0.7535
308.15 K, m1 = 0.2999	1006.92	1537.6	0.7611
313.15 K, m1 = 0.05002	994.421	1531.4	0.6558
313.15 K, m1 = 0.1001	996.578	1534.2	0.6627
313.15 K, m1 = 0.15	998.702	1537.1	0.6688
313.15 K, m1 = 0.2003	1000.82	1540.2	0.6756
313.15 K, m1 = 0.2502	1002.91	1543.3	0.682
313.15 K, m1 = 0.2999	1004.97	1546.6	0.6881

Cc1ncc(C[n+]2csc(CCO)c2C)c(N)n1.Cl.[Cl-] [thiamine hydrochloride] + O
Settings	mass density [kg/m3]	speed of sound [m/s]	viscosity [mPa·s]
293.15 K, m1 = 0.0497	1003.19	1490.4	1.048
293.15 K, m1 = 0.0502	1003.19	–	1.048
293.15 K, m1 = 0.0503	–	1490.4	–
293.15 K, m1 = 0.1003	1008.06	1498.5	1.071
293.15 K, m1 = 0.1008	1008.06	1498.5	1.071
293.15 K, m1 = 0.1498	1013.01	1507.2	1.101
293.15 K, m1 = 0.1505	1013.01	1507.2	1.101
298.15 K, m1 = 0.0497	1001.99	1504.1	0.9193
298.15 K, m1 = 0.0502	1001.99	–	0.9193
298.15 K, m1 = 0.0503	–	1504.1	–
298.15 K, m1 = 0.1003	1006.87	1512.6	0.954
298.15 K, m1 = 0.1008	1006.87	1512.6	0.954
298.15 K, m1 = 0.1498	1011.77	1520.8	0.9913
298.15 K, m1 = 0.1505	1011.77	1520.8	0.9913
303.15 K, m1 = 0.0497	1000.56	1516.7	0.8251
303.15 K, m1 = 0.0502	1000.56	–	0.8251
303.15 K, m1 = 0.0503	–	1516.7	–
303.15 K, m1 = 0.1003	1005.44	1524.1	0.8569
303.15 K, m1 = 0.1008	1005.44	1524.1	0.8569
303.15 K, m1 = 0.1498	1010.29	1532.7	0.8892
303.15 K, m1 = 0.1505	1010.29	1532.7	0.8892
308.15 K, m1 = 0.0497	998.93	1526.9	0.7565
308.15 K, m1 = 0.0502	998.93	–	0.7565
308.15 K, m1 = 0.0503	–	1526.9	–
308.15 K, m1 = 0.1003	1003.79	1533.7	0.7753
308.15 K, m1 = 0.1008	1003.79	1533.7	0.7753
308.15 K, m1 = 0.1498	1008.62	1542.5	0.8015
308.15 K, m1 = 0.1505	1008.62	1542.5	0.8015
313.15 K, m1 = 0.0497	997.193	1535.5	0.6772
313.15 K, m1 = 0.0502	997.193	–	0.6772
313.15 K, m1 = 0.0503	–	1535.5	–
313.15 K, m1 = 0.1003	1002	1542.8	0.7057
313.15 K, m1 = 0.1008	1002	1542.8	0.7057
313.15 K, m1 = 0.1498	1006.76	1551.1	0.7388
313.15 K, m1 = 0.1505	1006.76	1551.1	0.7388

O [water] + Cc1ncc(C[n+]2csc(CCO)c2C)c(N)n1.Cl.[Cl-]
m2 = 0
Settings	mass density [kg/m3]	speed of sound [m/s]	viscosity [mPa·s]
293.15 K	–	–	1.002
298.15 K	–	–	0.8906
303.15 K	–	–	0.7975
308.15 K	994.059	1519.3	0.7193
313.15 K	–	1528.7	0.6531

O [water] + N=C(N)NCCC[C@H](N)C(=O)O
m2 = 0
Settings	mass density [kg/m3]	speed of sound [m/s]	viscosity [mPa·s]
293.15 K	–	–	1.002
298.15 K	–	–	0.8906
303.15 K	–	–	0.7975
308.15 K	994.059	1519.3	0.7193
313.15 K	–	1528.7	0.6531

O [water] + N[C@@H](CO)C(=O)O
m2 = 0
Settings	mass density [kg/m3]	speed of sound [m/s]	viscosity [mPa·s]
293.15 K	–	–	1.002
298.15 K	–	–	0.8906
303.15 K	–	–	0.7975
308.15 K	994.059	1519.3	0.7193
313.15 K	–	1528.7	0.6531
